# Assay results: US20240132511A1, “TREATMENTS OF PRADER-WILLI SYNDROME” (Neuren Pharmaceuticals Limited, priority 2021, published 2024)
# Legend:
# [1] = test system: Magel2-null mice; experiment: Nest building quality; type: in vivo, mouse; parameters: key: **** = p < 0.0001; ns = not significant
# Description: (§1) The mouse locus 7qB4/B5 (syntenic with the Prader-Willi region at chromosome position 15q11-q13 in humans) encompasses the cluster of paternally-expressed imprinted genes Magel2, Ndn, Mkrn3, and Peg12. As maternal imprinting silences the Magel2 allele, only the paternally inherited Magel2 allele is expressed. Heterozygous females were bred with wild-type males (or C57BL/6J inbred males) to maintain the line; as the resulting offspring will have no abnormal phenotype. To obtain “Magel2-null” offspring (both maternal and paternal Magel2 alleles are non-functional), wild-type females are bred with heterozygous males; allowing maternal transmission of the imprinted/silenced wild-type allele and paternal transmission of the Magel2-lacZ (null) allele. Magel2-null mice have disrupted circadian rhythm and metabolism, total activity, food consumption, weight before weaning, and fertility in both sexes, as well as increased adiposity after weaning and altered behavior. Magel2-null mice on this C57BL/6J genetic background recapitulate Prader-Willi syndrome. Because the genetic mutation in the Magel2-null animals is the same as the mutation in human beings, studies in Magel2-null mice are reasonably predictive of effects of compounds in human beings.
# (§2) In vivo experiments were conducted in C57BL/6-Magel2tm1Stw/J (Magel2-null) mice at age P60 and their wild-type littermates during the light phase (littermates that were wild-type for Magel2 were used as controls). Ten mice per treatment group were used for studies 1 and 2, and six mice per group for study 3. In study 1: C57BL/6-Magel2tm1Stw/J (Magel2-null) mice were assessed on behavioral assays. Study 2 tested the efficacy of cG-2-AllylP in treating obesity and insulin levels in Magel2-null mice. Study 3 tested the IGF-1 level in Magel2-null mice. Because human beings have the same genetic abnormality, studies of Magel2-null mice are reasonably predictive of effects of compounds of Formulas I, II, III and IV in human beings with Prader-Willi Syndrome.
# (§3) Testing was performed during the light phase of the circadian cycle, with the order of testing being determined by the principle of conducting the most stressful tests last. Assays were designed to reproduce and expand on the original behavioral characterization of Magel2-null mice. Magel2-null and wild-type control mice were dosed once daily for 6 weeks prior to testing and tested 30 minutes following a dose of cG-2-AllylP (NNZ2591). Study groups and the treatment matrix are described in Table 2 below.
# For small rodents, nests are important in heat conservation as well as reproduction and shelter. Nest building is an activity needed for mice to raise their offspring and is an indicator of social adaptation and activities of daily living. Typically, changes in nesting behaviors, such as failure to create a nest, indicate a change in health or welfare. Nesting behavior is sensitive to many genetic mutations underlying pathological disease states.
# Nesting behavior is impaired in Magel2-null mice. Therefore, to determine if cG-2-AllylP might restore the quality of nest building, a series of studies were carried out.
# [2] = test system: Magel2-null mice; experiment: Partition test of social preference; type: in vivo, mouse; parameters: key: **** = p < 0.0001; ns = not significant
# Description: as §1, §2, §3
# People with Prader-Willi Syndrome show deficits in social behavior compared with people without Prader-Willi Syndrome. Two tests were carried out to assess the social behavior deficits of Magel2-null mice.
# The partition test of social preference measures the preference shown for an object versus a familiar mouse.
# [3] = test system: Magel2-null mice; experiment: Elevated Plus Maze (time in open arms); type: in vivo, mouse; parameters: key: **** = p < 0.0001; ns = not significant
# Description: as §1, §2, §3
# The Elevated Plus Maze test is used to assess anxiety related behaviors. Normal mice show a preference for being in closed arms over open arms.
# [4] = test system: Magel2-null mice; experiment: Circulating IGF-1 level in Magel2-null mice; type: in vivo, mouse; parameters: key: **** = p < 0.0001; ns = not significant
# Experimental: as §2, §3
# Prader-Willi Syndrome may be associated with altered IGF-1 levels in humans.
# [5] = test system: subjects with Prader-Willi syndrome; experiment: Proposed randomized, double-blind placebo controlled study in subjects with Prader-Willi syndrome; type: in vivo, human
# Description: For the proposed study thirty subjects with Prader-Willi syndrome are recruited. Subjects are females and males aged between 4 and 20 years (Mean=12.1 SD=4.4). All subjects have confirmed loss of function in the 15q11-q13 region on the paternal copy of chromosome 15 and also meet diagnostic criteria for Prader-Willi syndrome based on assessment of behavioral and somatic symptoms. The majority of subjects (72%) are being treated with rhGH at screening. Subjects are instructed that concomitant medications are to be stable for at least six weeks prior to study.
# The study is a randomized, double-blind placebo controlled parallel study with subjects randomized 1:1:1 to placebo, 6 mg/kg or 12 mg/kg of Cyclo-L-Glycyl-L-2-Allylproline is to be administered as an oral liquid twice daily for eighty-four days.
# Subjects are tested at baseline using the following instruments: the Hyperphagia Questionnaire for Clinical Trials (HQ-CT), the Clinical Global Impression of Severity (CGI-S), the Caregiver Global Impression of Change (CaGI-I), the Aberrant Behavior Checklist (ABC) and ABC Subscales, the Social Responsiveness Scale, the Repetitive Behavior Scale-Revised (RBS-R), the PWS Anxiety and Distress Questionnaire (PADQ) and the Children's Yale-Brown Obsessive-Compulsive Scale (CY-BOCS). In addition, the following measurements are made at baseline: Body Fat Assessment (BFA), fasting blood glucose, blood lipids (HDL, LDL, VLDL, triglycerides), serum IGF-1 (total, bound to IGF-1 Binding Protein-3 [IGFBP-3]), fasting insulin and the Homeostatic Model Assessment for Insulin Resistance (HOMA-IR).
# The effect of treatment with Cyclo-L-Glycyl-L-2-Allylproline is analyzed by conducting a repeated analysis of covariance (ANCOVA) on change from baseline scores for each of the measures plus the Clinical Global Impression of Change (CGI-I). Safety is assessed using caregiver reports of adverse events, a panel of standard laboratory tests and electrocardiograms (ECG).
# [6] = Magel2-null + Vehicle vs. Magel2-null + NNZ2591 (100 mg/kg)
# [7] = Magel2-null + Vehicle vs. Magel2-null + NNZ2591 (200 mg/kg)
# [8] = WT + NNZ2591 (100 mg/kg) vs. Magel2-null + NNZ2591 (100 mg/kg)
# [9] = WT + NNZ2591 (200 mg/kg) vs. Magel2-null + NNZ2591 (200 mg/kg)
# [10] = WT + Vehicle vs. WT + NNZ2591 (100 mg/kg)
# [11] = WT + Vehicle vs. WT + NNZ2591 (200 mg/kg)
# [12] = 6 mg/kg or 12 mg/kg oral liquid twice daily for eighty-four days
# [13] = 6 mg/kg or 12 mg/kg oral liquid twice daily for eighty-four days vs placebo
structure (smiles),measurement,setting,value
"C=CCC12CCCN1C(=O)CNC2=O [cG-2-AllylP, (8aS)-Allyl-hexahydropyrrolo[1,2-a]pyrazine-1,4-dione]","Nesting, Sidak's multiple comparisons test, Summary",[1]; Magel2-null + NNZ2591 (100 mg/kg) vs. Magel2-null + NNZ2591 (200 mg/kg),ns
same,"Nesting, Sidak's multiple comparisons test, Summary",[1]; [6],**** (**** = p < 0.00001.)
same,"Nesting, Sidak's multiple comparisons test, Summary",[1]; [7],**** (**** = p < 0.00001.)
same,"Nesting, Sidak's multiple comparisons test, Summary",[1]; [8],ns
same,"Nesting, Sidak's multiple comparisons test, Summary",[1]; [9],ns
same,"Nesting, Sidak's multiple comparisons test, Summary",[1]; [10],ns
same,"Nesting, Sidak's multiple comparisons test, Summary",[1]; [11],ns
same,"Social preference, Sidak's multiple comparisons test, Summary",[2]; [6],**** (**** = p < 0.0001)
same,"Social preference, Sidak's multiple comparisons test, Summary",[2]; [7],**** (**** = p < 0.0001)
same,"Social preference, Sidak's multiple comparisons test, Summary",[2]; [8],ns
same,"Social preference, Sidak's multiple comparisons test, Summary",[2]; WT + NNZ2591 (100 mg/kg) vs. Magel2-null + NNZ2591 (200 mg/kg),ns
same,"Social preference, Sidak's multiple comparisons test, Summary",[2]; [9],ns
same,"Social preference, Sidak's multiple comparisons test, Summary",[2]; [10],ns
same,"Social preference, Sidak's multiple comparisons test, Summary",[2]; [11],ns
same,"Elevated plus maze (time in open arm), Sidak's multiple comparisons test, Summary",[3]; [6],**** (**** = p < 0.0001)
same,"Elevated plus maze (time in open arm), Sidak's multiple comparisons test, Summary",[3]; [7],**** (**** = p < 0.0001)
same,"Elevated plus maze (time in open arm), Sidak's multiple comparisons test, Summary",[3]; [8],ns
same,"Elevated plus maze (time in open arm), Sidak's multiple comparisons test, Summary",[3]; [9],ns
same,"Elevated plus maze (time in open arm), Sidak's multiple comparisons test, Summary",[3]; WT + Vehicle vs WT + NNZ2591 (100 mg/kg),ns
same,"Elevated plus maze (time in open arm), Sidak's multiple comparisons test, Summary",[3]; [11],ns
same,"IGF-1 level, Sidak's multiple comparisons test, Summary",[4]; [6],**** (**** = p < 0.0001)
same,"IGF-1 level, Sidak's multiple comparisons test, Summary",[4]; [9],ns
same,"IGF-1 level, Sidak's multiple comparisons test, Summary",[4]; [10],ns
same,"IGF-1 level, Sidak's multiple comparisons test, Summary",[4]; [11],ns
same,Duration and severity of adverse events,[5]; [12],short duration and mild severity
same,Serious Adverse Events,[5]; [12],No Serious Adverse Events are reported
same,Incidence of treatment-emergent adverse events,[5]; [13],no difference in the incidence of treatment-emergent adverse events between placebo and either dose
same,Laboratory tests and ECG measures,[5]; [13],no treatment-related pattern of abnormalities on laboratory tests or ECG measures
